Measurements: PubChem BioAssay (NCI)
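Growth conditions: 96-well plates. Treatment: test compound, 48 hours, 5 concentrations. Analysis: linear interpolation between bracketing concentrations; unreached endpoints set to highest concentration. Abbreviation: GI50, concentration required for 50% inhibition of growth. TGI is the concentration that stops growth completely.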

Tests used:
Assay in all cases: inhibition of tumour cell growth, NCI panel, 48 h
[1] = test system: U251 CNS
[2] = test system: NCI-H226 lung
[3] = test system: NCI-H460 lung
[4] = test system: SK-OV-3 ovarian
[5] = test system: SF-539 CNS
[6] = test system: MCF7 breast
[7] = test system: OVCAR-8 ovarian
[8] = test system: OVCAR-3 ovarian
[9] = test system: LOX IMVI melanoma
[10] = test system: HOP-92 NSCLC

SMILES | GI50 [1] [µM] | TGI [1] [µM] | GI50 [2] [µM] | TGI [2] [µM] | GI50 [3] [µM] | TGI [3] [µM] | GI50 [4] [µM] | TGI [4] [µM] | GI50 [5] [µM] | TGI [5] [µM] | GI50 [6] [µM] | TGI [6] [µM] | GI50 [7] [µM] | TGI [7] [µM] | GI50 [8] [µM] | TGI [8] [µM] | GI50 [9] [µM] | TGI [9] [µM] | TGI [10] [µM] | GI50 [10] [µM]
O=S(=O)(Nc1ncccn1)c1ccc(N=Nc2ccc(O)c3ncccc23)cc1 | 4.71 | 30.4 | 13.4 | 30.5 | 3.69 | 17.2 | 19.2 | > 100 | 4.67 | 21.9 | 5.67 | 29.4 | 3.6 | 27.2 | 6.25 | 59.4 | 8.7 | 33.7 | – | –
COc1ccc(Cn2c(C)nc3c2C(=O)c2ccccc2C3=O)cc1 | – | > 75 | – | 48.2 | – | 9.74 | – | > 75 | – | 38.2 | – | – | – | > 75 | – | 24 | – | 11.2 | – | –
[O-]/[N+](=C\c1ccccc1)[C@H](COCc1ccccc1)c1ccccc1 | – | > 100 | – | – | – | > 100 | – | > 100 | – | > 100 | – | – | – | > 100 | – | > 100 | – | > 100 | 92.7 | –
O=C(O)c1ccccc1Cc1ccco1 | – | > 100 | – | > 100 | – | > 100 | – | > 100 | – | > 100 | – | – | – | > 100 | – | > 100 | – | – | > 100 | –
CCOc1ccc(NC(=O)CC2SC(=Nc3ccc(Cl)cc3)NC2=O)cc1 (centres undefined) | – | – | – | > 100 | – | > 100 | – | > 100 | – | > 100 | – | – | – | > 100 | – | > 100 | – | > 100 | – | –
COc1cc(-c2nn3c(/C=C4/C(=O)Nc5ccccc54)c(-c4ccc(C)cc4)nc3s2)cc(OC)c1OC | 1.59 | 3.43 | 22.5 | 59.9 | 1.98 | > 100 | 15.2 | 39.7 | 12.9 | 96 | – | – | 3.71 | > 100 | 2.9 | > 100 | – | – | 8.99 | 0.42
O=[As](O)(O)c1ccc(NCc2ccccc2)cc1 | – | > 100 | – | > 100 | – | > 100 | – | – | – | – | – | > 100 | – | > 100 | – | > 100 | – | > 100 | > 100 | –
O=C(O)CN(c1ccccc1)S(=O)(=O)c1ccc(NC(=O)c2ccccc2)cc1 | – | > 100 | – | – | – | > 100 | – | > 100 | – | > 100 | – | – | – | > 100 | – | – | – | > 100 | > 100 | –
O=C(CC1=Nc2nnc(-c3nnc4n3C(=O)C(CC(=O)c3cccnc3)=N4)n2C1=O)c1cccnc1 | – | > 100 | – | > 100 | – | > 100 | – | > 100 | – | > 100 | – | – | – | – | – | > 100 | – | > 100 | > 100 | –
O=C(c1ccc2ccccc2c1O)N1CCCCC1 | – | > 100 | – | > 100 | – | > 100 | – | > 100 | – | > 100 | – | > 100 | – | > 100 | – | – | – | > 100 | > 100 | –
C=CCC1OC(C)(C)Oc2ccc(OCOCCOC)cc21 (centres undefined) | – | > 100 | – | – | – | > 100 | – | > 100 | – | > 100 | – | – | – | > 100 | – | > 100 | – | > 100 | > 100 | –
COc1ccc(S(=O)(=O)NC(C)C(=O)O)cc1 (centres undefined) | – | > 100 | – | – | – | > 100 | – | > 100 | – | > 100 | – | – | – | > 100 | – | > 100 | – | > 100 | > 100 | –
O=C(c1ccccc1)c1c(NCC(O)CN2CCCC2)n(Cc2ccccc2)c(=O)n(Cc2ccccc2)c1=O (centres undefined) | 16.1 | 29.6 | 18.6 | 48.4 | 19.8 | 38.9 | 34 | > 100 | 19.6 | 33.9 | 42.5 | > 100 | 18.5 | 36.2 | 18.4 | 36.2 | 15.7 | 29.4 | – | –
N=C(c1ccccc1)N(c1ccccc1)c1ccccc1 | – | > 100 | – | > 100 | – | > 100 | – | – | – | > 100 | – | – | – | > 100 | – | – | – | > 100 | – | –
Nc1nc(CCC(=O)Nc2cccc(C(F)(F)F)c2)cc(-c2cccc3ccccc23)n1 | – | > 100 | – | > 100 | – | > 100 | – | > 100 | – | > 100 | – | – | – | > 100 | – | > 100 | – | > 100 | – | –
FC(F)(F)C1(Cl)C(c2ccccc2)=C1c1ccccc1 | – | 28.2 | – | 29.2 | – | 30.4 | – | 32.4 | – | 29.6 | – | – | – | 29.1 | – | 31.2 | – | 23.8 | 28.4 | –
C1OCC2S[C@@H]3COCO[C@@H]3C2O1 (some centres undefined) | – | > 100 | – | > 100 | – | > 100 | – | > 100 | – | > 100 | – | – | – | > 100 | – | > 100 | – | > 100 | – | –
COc1cc2c(cc1O)C=NCC2 | – | > 100 | – | > 100 | – | > 100 | – | > 100 | – | > 100 | – | – | – | > 100 | – | > 100 | – | – | > 100 | –
CC12CC3C(CC1SCC(=O)O2)C3(C)C (centres undefined) | – | > 100 | – | – | – | > 100 | – | > 100 | – | > 100 | – | – | – | > 100 | – | > 100 | – | – | > 100 | –
CCCCCCCCCCCOC(=S)NC(C)C | – | 30.2 | – | – | – | 50.7 | – | 49.6 | – | 35.4 | – | – | – | 31.7 | – | – | – | 30.7 | 32.2 | –
C1=C(c2ccccc2)CN(c2ccccc2)OC1 | – | > 100 | – | > 100 | – | > 100 | – | > 100 | – | > 100 | – | – | – | – | – | > 100 | – | > 100 | – | –
O=C1OC(=O)c2c1c(-c1ccccc1)cn2-c1ccc(Cl)cc1 | – | > 100 | – | > 100 | – | > 100 | – | > 100 | – | > 100 | – | – | – | > 100 | – | > 100 | – | > 100 | > 100 | –
C#CCC[C@@H]1O[C@@]1(C)CC/C=C(\C)CC/C=C/C=O | – | 39.3 | – | > 100 | – | > 100 | – | > 100 | – | 38.7 | – | – | – | 38.3 | – | 85.9 | – | 35.2 | 63.5 | –
